Data taken from patent US20100004221A1, “THIAZEPINE DERIVATIVE” (DAIICHI SANKYO COMPANY, LIMITED, priority 2006, published 2010).

System: not given
Test: not given
Details: not given

melting point [°C] | Structure (SMILES)
106 to 107 | Cc1ccccc1-c1nnc2n1CCSC(C)(C)C2 [Example 46, 8,8-Dimethyl-3-(2-methylphenyl)-5,6,8,9-tetrahydro[1,2,4]triazolo[4,3-d][1,4]thiazepine]
141 to 143 | COc1ccccc1-c1nnc2n1CCSC(C)(C)C2 [Example 47, 8,8-Dimethyl-3-(2-methoxyphenyl)-5,6,8,9-tetrahydro[1,2,4]triazolo[4,3-d][1,4]thiazepine]
125 | CCc1ccccc1-c1nnc2n1CCSC(C)(C)C2 [Example 48, 3-(2-Ethylphenyl)-8,8-dimethyl-5,6,8,9-tetrahydro[1,2,4]triazolo[4,3-d][1,4]thiazepine]
136 to 137 | CCOc1ccccc1-c1nnc2n1CCSC(C)(C)C2 [Example 49, 3-(2-Ethoxyphenyl)-8,8-dimethyl-5,6,8,9-tetrahydro[1,2,4]triazolo[4,3-d][1,4]thiazepine]

The remaining lines, values behind:

Structure (SMILES) | melting point [°C]
CC1(CO)Cc2nnc(-c3ccc(-c4ccc(F)cc4)cc3Cl)n2CCS1 (stereo not shown) [Example 1, [3-(3-Chloro-4′-fluorobiphenyl-4-yl)-8-methyl-5,6,8,9-tetrahydro[1,2,4]triazolo[4,3-d][1,4]thiazepin-8-yl]methanol] | 190 to 193
COc1cc(-c2ccc(F)c(Cl)c2)ccc1-c1nnc2n1CCSC(C)(CO)C2 (stereo not shown) [Example 32, [3-(3′-Chloro-4′-fluoro-3-methoxybiphenyl-4-yl)-8-methyl-5,6,8,9-tetrahydro[1,2,4]triazolo[4,3-d][1,4]thiazepin-8-yl]methanol] | 238 to 241
CC1(C)Cc2nnc(-c3ccccc3Cl)n2CCS1 [Example 45, 3-(2-Chlorophenyl)-8,8-dimethyl-5,6,8,9-tetrahydro[1,2,4]triazolo[4,3-d][1,4]thiazepine] | 183 to 185
CC1(C)Cc2nnc(-c3ccc(F)cc3Cl)n2CCS1 [Example 50, 3-(2-Chloro-4-fluorophenyl)-8,8-dimethyl-5,6,8,9-tetrahydro[1,2,4]triazolo[4,3-d][1,4]thiazepine] | 177 to 182
COc1cc(-c2cccc(NS(C)(=O)=O)c2)ccc1-c1nnc2n1CCSC(C)(CO)C2 (stereo not shown) [Example 55, N-{4′-[8-(Hydroxymethyl)-8-methyl-5,6,8,9-tetrahydro[1,2,4]triazolo[4,3-d][1,4]thiazepin-3-yl]-3′-methoxybiphenyl-3-yl}methanesulfonamide] | 250 to 252

Target: T1, human 11β-HSD1 (Homo sapiens, UniProt P28845)
T1 construct: cDNA coding for a full-length of human 11β-HSD1 in a mammal cell expression vector pCIneo; made in house; host or cells: HEK293 cells (transient transfection with pCIneo plasmid); microsome fraction used as enzyme source
Test: 11β-HSD1 enzyme inhibition experiment
Type: biochemical
Details: test compound at 39 nM; microsome fraction of HEK293 cells expressing human 11β-HSD1; cortisone 160 nM, room temperature, 3 h; read-out: inhibiting effects on cortisol production dependent on the 11β-HSD1 expressing cells
Method: A plasmid obtained by incorporating cDNA coding for a full-length of human 11β-HSD1 in a mammal cell expression vector pCIneo (Promega Corporation) was introduced into HEK293 cells using Lipofectamine Plus Reagent (Invitrogen Corporation) according to the package insert. 48 h later, cells were collected and frozen at −80° C. Cells into which the pCIneo vector was introduced were prepared as a control. Cells were thawed and suspended in 20 mM HEPES, 1 mM ethylenediamine tetraacetic acid, 2 mM magnesium chloride (final concentrations), and a buffer containing a protease inhibitor cocktail (Roche), and 4.1 Mpa pressure was applied by N2 cavitation on the ice for 30 min to disrupt cells. The disrupted cell suspension was centrifuged at 1000×g at 4° C. for 10 min, and a supernatant thereof was recovered. The obtained supernatant was further ultracentrifuged at 105,000×g at 4° C. for 30 min, and the resulting precipitate was suspended in an assay buffer (50 mM tris buffer, 10% glycerol) as a microsome fraction and used as an enzyme source.
A reaction was performed on a 384-well plate (Greiner Bio One) using a reaction volume of 25 μL, and all the samples were diluted with an assay buffer (50 mM tris buffer, pH 7.4, 10% glycerol). 0.8 mM NADPH, 6 mM glucose 6-phosphate, 0.35 units/mL glucose 6-phosphate dehydrogenase (Sigma Chemical), and 3 mM magnesium chloride and a microsome fraction having a protein amount of 0.7 μg per well (final concentrations) were added to the plate, and a solution containing a test compound dissolved in dimethyl sulfoxide was added at a final concentration of 0.1% and preincubated at room temperature for 15 min. After completion of preincubation, cortisone at a final concentration of 160 nM was added to start a reaction, and the reaction was performed at room temperature for 3 h. 25 μL of 100 mM carbenoxolone (Sigma Chemical) was added to terminate the reaction, and the amount of produced cortisol was measured with Discovery (Hewlett-Packard Company) using a cortisol prototype kit (Cisbio International) according to the package insert.

T1 sequence (P28845 whole entry): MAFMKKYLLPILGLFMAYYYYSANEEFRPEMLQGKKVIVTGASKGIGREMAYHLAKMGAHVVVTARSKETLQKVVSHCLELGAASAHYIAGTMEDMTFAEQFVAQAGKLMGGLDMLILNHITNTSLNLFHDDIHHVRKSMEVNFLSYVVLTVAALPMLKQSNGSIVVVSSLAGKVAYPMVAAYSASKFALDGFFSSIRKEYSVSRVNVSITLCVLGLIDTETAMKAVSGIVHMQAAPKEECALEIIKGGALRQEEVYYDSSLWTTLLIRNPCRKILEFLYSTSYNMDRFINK

inhibition at 0.039 µM [%] | Structure (SMILES)
71.8 | CC1(CO)Cc2nnc(-c3ccc(-c4ccc(F)cc4)cc3Cl)n2CCS1 (stereo not shown) [Example 1, [3-(3-Chloro-4′-fluorobiphenyl-4-yl)-8-methyl-5,6,8,9-tetrahydro[1,2,4]triazolo[4,3-d][1,4]thiazepin-8-yl]methanol]
67.1 | Cc1c(-c2nnc3n2CCSC(C)(CO)C3)sc2ccc(Cl)cc12 (stereo not shown) [Example 8, [3-(5-Chloro-3-methyl-1-benzothiophen-2-yl)-8-methyl-5,6,8,9-tetrahydro[1,2,4]triazolo[4,3-d][1,4]thiazepin-8-yl]methanol]
35.8 | COc1cc(-c2ccc(F)c(Cl)c2)ccc1-c1nnc2n1CCSC(C)(CO)C2 (stereo not shown) [Example 32, [3-(3′-Chloro-4′-fluoro-3-methoxybiphenyl-4-yl)-8-methyl-5,6,8,9-tetrahydro[1,2,4]triazolo[4,3-d][1,4]thiazepin-8-yl]methanol]
89 | CC1(C2CC2)Cc2nnc(-c3ccccc3Cl)n2CCS1 (stereo not shown) [Example 52, 3-(2-Chlorophenyl)-8-cyclopropyl-8-methyl-5,6,8,9-tetrahydro[1,2,4]triazolo[4,3-d][1,4]thiazepine]
